From ChEMBL document CHEMBL1201862, “PubChem BioAssay data set” (2004)
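Cultured in 96-well plates, cells were exposed to test compound for 48 hours across five concentrations. Abbreviation: GI50, concentration required for 50% inhibition of growth.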 Calls of active or inactive are those of the source. Cut-off read from the data, not from the text of the source: active = GI50 up to about 1.1 µM and inactive = higher.

What was measured:
Test in all cases: NCI tumour cell line growth inhibition, 48 h
[1] = tested on: SF-268
[2] = tested on: KM12
[3] = tested on: NCI-H460
[4] = tested on: A549
[5] = tested on: HOP-62
[6] = tested on: HOP-18
[7] = tested on: SN12C
[8] = tested on: HCT-116
[9] = tested on: KM-20L2
[10] = tested on: HT-29
[11] = tested on: CCRF-CEM
[12] = tested on: SW-620
[13] = tested on: IGROV-1
[14] = tested on: M19-MEL
[15] = tested on: RPMI-8226
[16] = tested on: TK-10
[17] = tested on: LXFL 529

Row | SMILES | GI50 [1] | GI50 [2] | GI50 [3] | GI50 [4] | GI50 [5] | GI50 [6] | GI50 [7] | GI50 [8] | GI50 [9] | GI50 [10] | GI50 [11] | GI50 [12] | GI50 [13] | GI50 [14] | GI50 [15] | GI50 [16] | GI50 [17]
1 | CCOCN1COCN(C)C1=O | > 100 µM (inactive) | > 100 µM (inactive) | > 100 µM (inactive) | > 100 µM (inactive) | > 100 µM (inactive) | > 100 µM (inactive) | > 100 µM (inactive) | > 100 µM (inactive) | > 100 µM (inactive) | > 100 µM (inactive) | > 100 µM (inactive) | > 100 µM (inactive) | > 100 µM (inactive) | > 100 µM (inactive) | > 100 µM (inactive) | > 100 µM (inactive) | 
2 | COC(=O)/C(=N\NC(=O)c1ccccc1O)C(C#N)c1ccccc1 (centres undefined) | 23.5 µM (inactive) | 24.1 µM (inactive) | 18.9 µM (inactive) | 16.6 µM (inactive) | 20.7 µM (inactive) |  | 37.4 µM (inactive) | 17.3 µM (inactive) | > 50 µM (inactive) | > 50 µM (inactive) | 19.4 µM (inactive) | 23.5 µM (inactive) | 19.5 µM (inactive) | 30 µM (inactive) | 20.2 µM (inactive) | > 46.7 µM (inactive) | 21.5 µM (inactive)
3 | COc1ccc(C(=O)/C(=N/Nc2ccccc2)c2ccc(OC)cc2)cc1 |  | 10.6 µM (inactive) | > 100 µM (inactive) | > 100 µM (inactive) |  | > 100 µM (inactive) | > 100 µM (inactive) | > 100 µM (inactive) | 10.2 µM (inactive) | 18.3 µM (inactive) |  | > 100 µM (inactive) | > 100 µM (inactive) | > 100 µM (inactive) | 51.4 µM (inactive) | > 100 µM (inactive) | 25.2 µM (inactive)
4 | COc1ccc(/C=C/c2cc(OC)c(OC)c(OC)c2)cc1 | 15.1 µM (inactive) | 3.3 µM (inactive) | 3.9 µM (inactive) | 7.55 µM (inactive) | 3.48 µM (inactive) |  | 13.2 µM (inactive) | 2.86 µM (inactive) | 2.34 µM (inactive) | 3.2 µM (inactive) | 1.66 µM (inactive) | 5.77 µM (inactive) | 11 µM (inactive) | 9.95 µM (inactive) | 1.09 µM (active) | 43.7 µM (inactive) | 31.8 µM (inactive)
5 | O=c1c2ccccc2n2n1CC(O)C2 (centres undefined) | > 100 µM (inactive) | > 100 µM (inactive) | > 100 µM (inactive) | > 100 µM (inactive) | > 100 µM (inactive) | > 100 µM (inactive) | > 100 µM (inactive) | > 100 µM (inactive) | > 100 µM (inactive) | > 100 µM (inactive) | > 100 µM (inactive) | > 100 µM (inactive) | > 100 µM (inactive) | > 100 µM (inactive) | > 100 µM (inactive) | > 100 µM (inactive) | 
6 | Cc1ccc(/C=C/C(=O)C(C)(C)CN2CCCCC2)cc1 | 15.7 µM (inactive) | 3.28 µM (inactive) | 8.28 µM (inactive) | 5.68 µM (inactive) | 15.7 µM (inactive) |  | 3.9 µM (inactive) | 10.5 µM (inactive) | 2.86 µM (inactive) | 3.24 µM (inactive) | 3.11 µM (inactive) | 2.72 µM (inactive) | 11.4 µM (inactive) | 11.8 µM (inactive) | 3.49 µM (inactive) | 11.6 µM (inactive) | 6.62 µM (inactive)
7 | O=C(O/C(=C(/N=N/c1ccccc1)c1ccccc1)c1ccccc1)c1ccccc1 |  | > 100 µM (inactive) | > 100 µM (inactive) | > 100 µM (inactive) |  | > 100 µM (inactive) | > 100 µM (inactive) | > 100 µM (inactive) | > 100 µM (inactive) | > 100 µM (inactive) |  | > 100 µM (inactive) | > 100 µM (inactive) |  | > 100 µM (inactive) | > 100 µM (inactive) | > 100 µM (inactive)
8 | CC(/C=C/c1ccccc1)=N\N=C(C)\C=C\c1ccccc1 | > 100 µM (inactive) | > 100 µM (inactive) | > 100 µM (inactive) | > 100 µM (inactive) | > 100 µM (inactive) |  | > 100 µM (inactive) | > 100 µM (inactive) | > 100 µM (inactive) | > 100 µM (inactive) | > 100 µM (inactive) | > 100 µM (inactive) | > 100 µM (inactive) | > 100 µM (inactive) | > 100 µM (inactive) | > 100 µM (inactive) | > 100 µM (inactive)
9 | CCN(CC)c1ccc2c(c1)Oc1ccc(N(CC)CC)cc1C21Oc2ccccc2-c2c1c1ccccc1n2CC (centres undefined) | 2.38 µM (inactive) |  |  | 3.18 µM (inactive) |  | 0.614 µM (active) | 3.68 µM (inactive) | 1.05 µM (active) | 0.875 µM (active) | 1.22 µM (inactive) | 1.44 µM (inactive) | 3.58 µM (inactive) |  |  | 0.592 µM (active) |  | 3.36 µM (inactive)
10 | COc1ccc(C#CCC(OC2OC(CO)C(O)C(O)C2O)C(O)c2ccc(OC)c(OC)c2)cc1OC (centres undefined) | > 100 µM (inactive) | > 100 µM (inactive) | > 100 µM (inactive) | > 100 µM (inactive) | > 100 µM (inactive) | > 100 µM (inactive) | > 100 µM (inactive) | > 100 µM (inactive) | > 100 µM (inactive) | > 100 µM (inactive) | 36.6 µM (inactive) | > 100 µM (inactive) | > 100 µM (inactive) |  | > 100 µM (inactive) |  | > 100 µM (inactive)
11 | O=S(=O)(Cc1ccccc1)SCc1ccccc1 | 36.8 µM (inactive) | 32.4 µM (inactive) | 27.6 µM (inactive) | 30.8 µM (inactive) | 44.6 µM (inactive) | 18.9 µM (inactive) | 24.7 µM (inactive) | 10.1 µM (inactive) | 21.6 µM (inactive) | 25.4 µM (inactive) | 3.24 µM (inactive) | 4.37 µM (inactive) | 31.6 µM (inactive) | 22.2 µM (inactive) | 13.3 µM (inactive) | > 48.1 µM (inactive) | 
12 | Cc1ccc(S(=O)OCc2c(C)c(C)c(COS(=O)c3ccc(C)cc3)c(C)c2C)cc1 (centres undefined) | > 100 µM (inactive) | > 100 µM (inactive) | > 100 µM (inactive) | > 100 µM (inactive) | > 100 µM (inactive) | > 100 µM (inactive) | > 100 µM (inactive) | > 100 µM (inactive) | > 100 µM (inactive) | > 100 µM (inactive) |  | > 100 µM (inactive) | > 100 µM (inactive) | > 100 µM (inactive) | > 100 µM (inactive) | > 100 µM (inactive) | > 100 µM (inactive)
13 | O=C(N/C(=C\c1cc(Cl)ccc1Cl)c1nc2ccccc2[nH]1)c1ccccc1 | 36.1 µM (inactive) | 27.4 µM (inactive) |  | 35.1 µM (inactive) |  |  | 32.1 µM (inactive) |  | 34 µM (inactive) | 16.3 µM (inactive) | 25.9 µM (inactive) | 22 µM (inactive) | > 10 µM (inactive) | 30.5 µM (inactive) |  | 93.3 µM (inactive) | 24.5 µM (inactive)
14 | CCCN(CCCC(NC(C)=O)C(=O)NCc1ccccc1)C(=O)N(C)N=O (centres undefined) | > 100 µM (inactive) | > 100 µM (inactive) | > 100 µM (inactive) | > 100 µM (inactive) | > 100 µM (inactive) |  | > 100 µM (inactive) | > 100 µM (inactive) | > 100 µM (inactive) | > 100 µM (inactive) | > 100 µM (inactive) | > 100 µM (inactive) | > 100 µM (inactive) | > 100 µM (inactive) | > 100 µM (inactive) | > 100 µM (inactive) | > 100 µM (inactive)
15 | COC1OC(CO)C(O)C1N (centres undefined) | > 100 µM (inactive) | > 100 µM (inactive) | > 100 µM (inactive) | > 100 µM (inactive) | > 100 µM (inactive) | > 100 µM (inactive) | > 100 µM (inactive) | > 100 µM (inactive) | > 100 µM (inactive) | > 100 µM (inactive) | > 100 µM (inactive) | > 100 µM (inactive) | > 100 µM (inactive) |  |  | > 100 µM (inactive) | > 100 µM (inactive)
16 | CCOC(=O)c1nc2ccc(Cl)cc2c2c1Cc1ccccc1-2 | > 100 µM (inactive) | > 100 µM (inactive) |  | > 100 µM (inactive) | > 100 µM (inactive) | > 100 µM (inactive) | > 100 µM (inactive) | > 100 µM (inactive) | > 100 µM (inactive) |  |  | > 100 µM (inactive) | > 100 µM (inactive) | > 100 µM (inactive) | > 100 µM (inactive) | > 100 µM (inactive) | > 100 µM (inactive)
17 | Cc1c(Cl)cccc1NC(=O)C(=O)C(C(=O)c1ccccc1-c1ccccc1)C1OC(=O)c2ccccc21 (centres undefined) | 19.7 µM (inactive) | 18.5 µM (inactive) | 25.5 µM (inactive) | 22.4 µM (inactive) | 16.3 µM (inactive) |  |  | 12.5 µM (inactive) | 23.7 µM (inactive) | 33.1 µM (inactive) | 19.8 µM (inactive) | 21.3 µM (inactive) | 32.1 µM (inactive) | 15.1 µM (inactive) | 13.8 µM (inactive) | 28.6 µM (inactive) | 14 µM (inactive)
18 | NNC(=O)N/N=C1\C(=O)N(c2nccs2)C(=O)C(=O)C1c1nc2ccccc2s1 (centres undefined) | > 100 µM (inactive) | > 100 µM (inactive) | > 100 µM (inactive) | > 100 µM (inactive) | > 100 µM (inactive) | 7.19 µM (inactive) | > 100 µM (inactive) | > 100 µM (inactive) | > 100 µM (inactive) | > 100 µM (inactive) |  | > 100 µM (inactive) | > 100 µM (inactive) | > 100 µM (inactive) | > 100 µM (inactive) | > 100 µM (inactive) | > 100 µM (inactive)
